Measurements taken from patent publication US20130133650A1, “GAS-BASED TREATMENT FOR INFECTIVE DISEASE” (priority 2010, published 2013).

Tested on: M. tuberculosis H37Rv

[HH] [hydrogen]
effect on viability / lethality (words, FIG. 1): as effective as Bioblend

Carbon dioxide
effect on viability / lethality (words, FIG. 1): only a slight lethal effect
